# Test results as given in patent US20250280826A1, “PLANT GROWTH PROMOTER” (KAO CORPORATION, priority 2022, published 2025).
# How the values were obtained:
# Type in all cases: in vivo
# soybean (Glycine max) = assay: Test Example 1: soybean yield (dry grain mass) in field after one foliar spray
# Experimental: An ascorbic acid aqueous solution prepared by dissolving ascorbic acid in water and an ascorbic acid aqueous solution prepared by dissolving ascorbic acid in deionized water were prepared, and the influence of the ascorbic acid dissolved in water on the application effect for soybean (Glycine max) was examined.
# The influence of one foliar spray of 500 mass ppm ascorbic acid on the soybean yield was evaluated. The evaluated test plots 1 to 3 are as shown below. • 1 plot: control (no application) • 2 plot: foliar spray of 500 mass ppm ascorbic acid (dissolved in tap water) • 3 plot: foliar spray of 500 mass ppm ascorbic acid (dissolved in deionized water)
# The cultivation of soybean was carried out in a field in Tochigi Prefecture, and the soybean cultivar used was “Sato no Hohoemi.” Of the field, a ridge with a width of 2 m excluding the perimeter was used as one plot, and foliar spray treatment was carried out. […]
# The ascorbic acid used was “Food Additive Grade Vitamin C (L-ascorbic acid) Fine Mesh TypeSSS” manufactured by Fuso Chemical Co. Ltd. An aqueous solution of 500 mass ppm ascorbic acid was dissolved in tap water or deionized water for production. […] The dry grain mass was measured as yield data.
# After calculating the average grain weight of each plant in one plot, the mean and the standard deviation of three plots were calculated (FIG. 1).
# azuki bean = assay: Example 6: initial growth index in azuki bean (above-/below-ground part dry weight); settings: ascorbic acid 1 500 mass ppm, tap water vs deionized water
# Experimental: Medium-term fertilizer effect type culture soil (Takii hydrous cell medium-term fertilizer effect type, Takii & Co., Ltd.) and vermiculite grains (Akagi-Engei Co., Ltd.) were mixed at a volume ratio of 1:1, and the soil was placed in a polypot (diameter: 10.5 cm, height: 9 cm). The azuki bean seeds used were “Tamba Dainagon Azuki Beans” (purchased from Takii & Co., Ltd.). After tap water was supplied in an amount of 250 mL per pot, 2 seeds per pot were each sown at a depth of from about 1 to 2 cm from the soil surface. The number of repeats in each test plot was 6 (n=6). […]
# Spraying solutions were prepared, and 6.7 mL of each per plant was sprayed only once using a mister on day 21 after sowing. […] The evaluated test plots 1 to 4 are as follows.
# On day 28 after sowing, the plant body was dried at 90° C. for 24 hours, and the above-ground part dry weight and below-ground part dry weight of the plant body were then measured. • 1 plot: control (no application) • 2 plot: foliar spray of 1 500 mass ppm ascorbic acid (dissolved in tap water) • 3 plot: foliar spray of 1 500 mass ppm ascorbic acid (dissolved in deionized water) • 4 plot: foliar spray of 1 500 mass ppm ascorbic acid+1 mass ppm BHT+50 mass ppm isobutyl alcohol+350 mass ppm sorbitan monolaurate (dissolved in tap water)
# chickpea = assay: Example 7: initial growth index in chickpea (above-ground part dry weight); settings: ascorbic acid 1 500 mass ppm, tap water vs deionized water
# Experimental: Medium-term fertilizer effect type culture soil (Takii hydrous cell medium-term fertilizer effect type, Takii & Co., Ltd.) and vermiculite grains (Akagi-Engei Co., Ltd.) were mixed at a volume ratio of 1:1, and the soil was placed in a polypot (diameter: 10.5 cm, height: 9 cm). The chickpea used was seeds of Kabuli species (purchased from Nikko Seed Co. Ltd.). After tap water was supplied in an amount of 250 mL per pot, 2 seeds per pot were each sown at a depth of from about 1 to 2 cm from the soil surface. The number of repeats in each test plot was 6 (n=6). […]
# The cultivation conditions and the foliar spray treatment method were the same as those in Example 6 (example of azuki bean). The evaluated test plots 1 to 4 are as follows.
# On day 28 after sowing, the plant body was dried at 90° C. for 24 hours, and the above-ground part dry weight of the plant body was then measured. • 1 plot: control (no application) • 2 plot: foliar spray of 1 500 mass ppm ascorbic acid (dissolved in tap water) • 3 plot: foliar spray of 1 500 mass ppm ascorbic acid (dissolved in deionized water) • 4 plot: foliar spray of 1 500 mass ppm ascorbic acid+1 mass ppm BHT+50 mass ppm isobutyl alcohol+350 mass ppm sorbitan monolaurate (dissolved in tap water) […]
compound,measurement,setting,value
"O=C1O[C@H]([C@@H](O)CO)C(O)=C1O [ascorbic acid, (R)-3,4-dihydroxy-5-((S)-1,2-dihydroxyethyl)furan-2(5H)-one]",effects of ascorbic acid on seed weight,soybean (Glycine max); 500 mass ppm dissolved in tap water,effects of ascorbic acid disappear
same,effects of tap water and deionized water on the seed weight,"soybean (Glycine max); 500 mass ppm, 20 mL per plant, day 60 after sowing, tap water vs deionized water",different effects
same,effects on the initial growth index,azuki bean,varied in accordance with the water quality
same,effects on the initial growth index,chickpea,varied in accordance with the water quality
